Laboratory results reported in the supplement of paper PMC10307832.

Tests used:
Experiment in all cases: relative viability (nuclei count vs DMSO), 5 days (fraction); higher = more cells survive
A-427 = system: A-427
Procedure, shortened: (§1)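 For relative viability, nuclei counts in treated wells were divided by those in vehicle wells. Lung cancer cell lines had been pin-tool dosed in 1536-well plates the day after seeding and cultured for 5 days, then fixed and stained in one step (final 0.05% Triton X-100, 1% formaldehyde, 1 ug/ml Hoechst) and imaged at 4×. Doses were one drug alone or a fixed anchor-drug dose plus five library-drug doses (not always all listed) in √10 steps, and values are duplicate-plate medians.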

NCI-H650 = system: NCI-H650
Procedure, shortened: as §1

NCI-H1650 = system: NCI-H1650
Procedure, shortened: as §1

201T = system: 201T
Procedure, shortened: as §1

NCI-H358 = system: NCI-H358
Procedure, shortened: as §1

COR-L23 = system: COR-L23
Procedure, shortened: as §1

SK-MES-1 = system: SK-MES-1
Procedure, shortened: as §1

BEN = system: BEN
Procedure, shortened: as §1

NCI-H2342 = system: NCI-H2342
Procedure, shortened: as §1

HCC-44 = system: HCC-44
Procedure, shortened: as §1

NCI-H1975 = system: NCI-H1975
Procedure, shortened: as §1

EKVX = system: EKVX
Procedure, shortened: as §1

NCI-H1437 = system: NCI-H1437
Procedure, shortened: as §1

HCC-15 = system: HCC-15
Procedure, shortened: as §1

NCI-H441 = system: NCI-H441
Procedure, shortened: as §1

NCI-H838 = system: NCI-H838
Procedure, shortened: as §1

SW 900 = system: SW 900
Procedure, shortened: as §1

NCI-H23 = system: NCI-H23
Procedure, shortened: as §1

HARA = system: HARA
Procedure, shortened: as §1

HCC-827 = system: HCC-827
Procedure, shortened: as §1

NCI-H1666 = system: NCI-H1666
Procedure, shortened: as §1

NCI-H596 = system: NCI-H596
Procedure, shortened: as §1

For O=c1cc(-c2cccc3c2Sc2ccccc2S3)oc(N2CCOCC2)c1 + Cc1cc(Nc2cc(N3CCN(C)CC3)nc(Sc3ccc(NC(=O)C4CC4)cc3)n2)n[nH]1 [Tozasertib] (partner 0.1 µM), the relative viability (A-427; first compound 0.08 µM) was 0.176, the relative viability (A-427; first compound 0.253 µM) was 0.179 and the relative viability (A-427; first compound 0.8 µM) was 0.196. It also gave a relative viability (A-427; first compound 8 µM) of 0.204, a relative viability (NCI-H650; first compound 0.08 µM) of 0.641 and a relative viability (NCI-H650; first compound 0.253 µM) of 0.662. It also gave a relative viability (NCI-H650; first compound 0.8 µM) of 0.758, a relative viability (NCI-H650; first compound 8 µM) of 0.708 and a relative viability (NCI-H1650; first compound 0.08 µM) of 0.471. The relative viability (NCI-H1650; first compound 0.253 µM) was 0.458, the relative viability (NCI-H1650; first compound 0.8 µM) was 0.392 and the relative viability (NCI-H1650; first compound 2.53 µM) was 0.294. For the same molecule, the relative viability (NCI-H1650; first compound 8 µM) was 0.326, the relative viability (201T; first compound 0.08 µM) was 0.945 and the relative viability (201T; first compound 0.253 µM) was 0.982. It also gave a relative viability (201T; first compound 0.8 µM) of 1.04, a relative viability (201T; first compound 2.53 µM) of 0.923 and a relative viability (201T; first compound 8 µM) of 0.753. The relative viability (NCI-H358; first compound 0.08 µM) was 0.0969, the relative viability (NCI-H358; first compound 0.253 µM) was 0.101 and the relative viability (NCI-H358; first compound 0.8 µM) was 0.12. For the same molecule, the relative viability (NCI-H358; first compound 2.53 µM) was 0.0965, the relative viability (NCI-H358; first compound 8 µM) was 0.111 and the relative viability (COR-L23; first compound 0.08 µM) was 0.202. It also gave a relative viability (COR-L23; first compound 0.253 µM) of 0.202, a relative viability (COR-L23; first compound 0.8 µM) of 0.188 and a relative viability (COR-L23; first compound 2.53 µM) of 0.148. For the same molecule, the relative viability (COR-L23; first compound 8 µM) was 0.172, the relative viability (SK-MES-1; first compound 0.08 µM) was 0.902 and the relative viability (SK-MES-1; first compound 0.253 µM) was 1.04. For the same molecule, the relative viability (SK-MES-1; first compound 0.8 µM) was 0.879, the relative viability (SK-MES-1; first compound 2.53 µM) was 0.848 and the relative viability (SK-MES-1; first compound 8 µM) was 0.852. It also gave a relative viability (BEN; first compound 0.08 µM) of 0.724, a relative viability (BEN; first compound 0.253 µM) of 0.487 and a relative viability (BEN; first compound 0.8 µM) of 0.423. For the same molecule, the relative viability (BEN; first compound 2.53 µM) was 0.456, the relative viability (BEN; first compound 8 µM) was 0.617 and the relative viability (NCI-H2342; first compound 0.08 µM) was 0.505. It also gave a relative viability (NCI-H2342; first compound 0.253 µM) of 0.495, a relative viability (NCI-H2342; first compound 0.8 µM) of 0.472 and a relative viability (NCI-H2342; first compound 2.53 µM) of 0.532. The relative viability (NCI-H2342; first compound 8 µM) was 0.466, the relative viability (HCC-44; first compound 0.08 µM) was 0.888 and the relative viability (HCC-44; first compound 0.253 µM) was 1.01. It also gave a relative viability (HCC-44; first compound 2.53 µM) of 0.717, a relative viability (HCC-44; first compound 8 µM) of 0.54 and a relative viability (NCI-H1975; first compound 0.08 µM) of 0.867. For the same molecule, the relative viability (NCI-H1975; first compound 0.253 µM) was 0.803, the relative viability (NCI-H1975; first compound 0.8 µM) was 0.653 and the relative viability (NCI-H1975; first compound 2.53 µM) was 0.341. The relative viability (NCI-H1975; first compound 8 µM) was 0.299, the relative viability (EKVX; first compound 0.08 µM) was 0.517 and the relative viability (EKVX; first compound 0.253 µM) was 0.376. It also gave a relative viability (EKVX; first compound 0.8 µM) of 0.451, a relative viability (EKVX; first compound 2.53 µM) of 0.377 and a relative viability (EKVX; first compound 8 µM) of 0.412. The relative viability (NCI-H1437; first compound 0.08 µM) was 0.385, the relative viability (NCI-H1437; first compound 0.253 µM) was 0.477 and the relative viability (NCI-H1437; first compound 0.8 µM) was 0.43. It also gave a relative viability (NCI-H1437; first compound 2.53 µM) of 0.381, a relative viability (NCI-H1437; first compound 8 µM) of 0.435 and a relative viability (HCC-15; first compound 0.08 µM) of 0.437. For the same molecule, the relative viability (HCC-15; first compound 0.253 µM) was 0.428, the relative viability (HCC-15; first compound 0.8 µM) was 0.504 and the relative viability (HCC-15; first compound 2.53 µM) was 0.39. The relative viability (HCC-15; first compound 8 µM) was 0.307, the relative viability (NCI-H441; first compound 0.08 µM) was 0.686 and the relative viability (NCI-H441; first compound 0.253 µM) was 0.693. The relative viability (NCI-H441; first compound 0.8 µM) was 0.793, the relative viability (NCI-H441; first compound 2.53 µM) was 0.598 and the relative viability (NCI-H441; first compound 8 µM) was 0.632. It also gave a relative viability (NCI-H838; first compound 0.08 µM) of 0.295, a relative viability (NCI-H838; first compound 0.253 µM) of 0.277 and a relative viability (NCI-H838; first compound 0.8 µM) of 0.245. For the same molecule, the relative viability (NCI-H838; first compound 2.53 µM) was 0.273, the relative viability (NCI-H838; first compound 8 µM) was 0.266 and the relative viability (SW 900; first compound 0.08 µM) was 0.754. For the same molecule, the relative viability (SW 900; first compound 0.253 µM) was 0.543, the relative viability (SW 900; first compound 0.8 µM) was 0.433 and the relative viability (SW 900; first compound 2.53 µM) was 0.486. The relative viability (SW 900; first compound 8 µM) was 0.5, the relative viability (NCI-H23; first compound 0.08 µM) was 0.629 and the relative viability (NCI-H23; first compound 0.253 µM) was 0.341. It also gave a relative viability (NCI-H23; first compound 0.8 µM) of 0.357, a relative viability (NCI-H23; first compound 2.53 µM) of 0.296 and a relative viability (NCI-H23; first compound 8 µM) of 0.283. For the same molecule, the relative viability (HARA; first compound 0.08 µM) was 0.099, the relative viability (HARA; first compound 0.253 µM) was 0.0933 and the relative viability (HARA; first compound 0.8 µM) was 0.112. For the same molecule, the relative viability (HARA; first compound 2.53 µM) was 0.133, the relative viability (HARA; first compound 8 µM) was 0.0897 and the relative viability (HCC-827; first compound 0.08 µM) was 0.462. The relative viability (HCC-827; first compound 0.253 µM) was 0.409, the relative viability (HCC-827; first compound 0.8 µM) was 0.46 and the relative viability (HCC-827; first compound 2.53 µM) was 0.415. The relative viability (HCC-827; first compound 8 µM) was 0.437, the relative viability (NCI-H1666; first compound 0.08 µM) was 0.612 and the relative viability (NCI-H1666; first compound 0.253 µM) was 0.603. It also gave a relative viability (NCI-H1666; first compound 0.8 µM) of 0.625, a relative viability (NCI-H1666; first compound 2.53 µM) of 0.539 and a relative viability (NCI-H1666; first compound 8 µM) of 0.615. The relative viability (NCI-H596; first compound 0.08 µM) was 0.758, the relative viability (NCI-H596; first compound 0.253 µM) was 0.892 and the relative viability (NCI-H596; first compound 0.8 µM) was 1.08. It also gave a relative viability (NCI-H596; first compound 2.53 µM) of 0.762 and a relative viability (NCI-H596; first compound 8 µM) of 0.997.
